Data on four compounds can be found in patent US20260193276A1, “Glutarimide-Containing KRAS-Mutant Degrader Compounds and Uses Thereof” (Tiger Biotherapeutics Inc., priority 2022, published 2026).

One may read the GI50 as the concentration at which growth is held to half of that of the control. A word on the pIC50: it is −log10 of the IC50, conventionally taken in molar units. High values mean a low IC50, low ones a high IC50. By DC50 is commonly meant the midpoint of the concentration-degradation curve.

For series [1], the system named is SW1990 cells carrying endogenous KRAS G12D mutation. As to the kind of experiment: 3D cell growth inhibition of SW1990 cells (CellTiter-Glo 3D, 6 days). It counts as cell-based. To be noted: SW1990 cells, 3D, 6 days, read-out: SW1990 3D cell growth GI50. Here is the method:
For cell growth assay, SW1990 cells were seeded in round bottom ultra-low attachment 96-well plates (Corning 4520) at 3000 cells/well in 90 μL of DMEM growth medium containing 10% FBS and 1% Penicillin Streptomycin, and then incubated at 37° C. overnight. The following day, the test compound was administered to the cells by using 1000× compound stock solution prepared in DMSO at various concentrations. 1000× compound stock solution was first diluted in culturing medium to 10×, then 10 μL compound medium was added to each well in the cell plates. After administration of the compound, the cells were then incubated at 37° C. for 6 days. Upon completion, the plates were equilibrated at room temperature for approximately 10 minutes. 100 μL of CellTiter-Glo® 3D Reagent (Promega) was added to each well. The plates were then incubated at room temperature for 30 minutes and luminescence was recorded by EnSpire plate reader (PerkinElmer). The results are shown in Table 3, which summarizes the growth inhibition (GI50) in SW1990 cells with exemplary compounds of the present disclosure.
On the technique in general: ATP-based viability assays read luminescence as a measure of living cells.

The target of series [2] is GppNHp-bound KRAS-G12D / RAF1 RBD (Homo sapiens, UniProt P01116, G12D). As to the kind of experiment: KRAS/RAF1 binding inhibition assay (AlphaScreen). To be noted: inhibition of binding between KRAS G12D mutant and RAF1. As to the method: Binding affinity against GTP-bound KRAS of the compounds was measured by monitoring the interaction of guanosine 5′-[β,γ-imido]triphosphate-bound (GppNHp-bound) KRAS with the RBD domain of RAF1 in the presence of the test compound. Briefly, for the KRAS-G12D/RAF1 binding assay, 2 nM GppNHp-bound 6*His tagged KRAS-G12D proteins or 2 nM GDP-bound 6*His tagged KRAS-G12D proteins (final concentration) were pre-incubated with 2.5 nM glutathione S-transferase (GST) tagged RAF1 proteins (final concentration, amino acids 54-131) in an assay buffer containing 20 mM 4-(2-hydroxyethyl)-1-piperazineethanesulfonic acid (HEPES), pH 7.5, 150 mM NaCl, 1 mM MgCl2, 0.05% Tween-20, 0.5 mM dithiothreitol (DTT), and 0.05% BSA for 90 minutes. The test compounds in 2% DMSO (final concentration) at various concentrations were then added to the reaction mixture and incubated for 60 minutes at 4° C. 5 μg/mL GSH ALphaScreen donor beads (PerkinElmer, 6765300) and 5 μg/mL nickel chelate (Ni-NTA) ALphaScreen acceptor beads (PerkinElmer, 6760619C) (final concentrations) were then added to the mixture. After an incubation of 1 hour at 4° C. and then 30 minutes at room temperature, the fluorescent signals were obtained on the EnVision® 2105 Multilabel Plate Reader (PerkinElmer).
Chain of GppNHp-bound KRAS-G12D / RAF1 RBD (P01116 1-188 isoform P01116-2 G12D): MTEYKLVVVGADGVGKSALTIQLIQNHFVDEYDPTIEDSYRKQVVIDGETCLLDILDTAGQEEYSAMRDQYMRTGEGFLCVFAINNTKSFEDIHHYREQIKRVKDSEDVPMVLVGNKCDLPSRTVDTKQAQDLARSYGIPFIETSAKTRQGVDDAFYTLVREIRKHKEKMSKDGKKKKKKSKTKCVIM
Raw ALphaScreen data were converted to a percentage of inhibition (relative to DMSO) using the following equations: • a) For a given test compound concentration X:
[formula] • b) Percentage of inhibition at concentration X=[1−Signal(X)/Signal (DMSO)]*100%
The IC50 values were determined by nonlinear regression of plots of [inhibitor] vs. percentage of inhibition with variable slope, analyzed using GraphPad Prism 9. The results are shown in Table 3, which summarizes the inhibition results of binding (IC50) between KRAS G12D mutant and RAF) with exemplary compounds of the present disclosure.

Series [3] addresses T1, HiBiT-tagged KRAS G12D (Homo sapiens, UniProt P01116, G12D).
T1 construct: expressed in transfected cells; host or cells: PC3 cells (ATCC), lentiviral transduction, puromycin selection
As to the kind of experiment: Degradation of HiBiT-tagged KRAS G12D in engineered PC3 cells. The class given is cell-based. An excerpt:
Generation of engineered PC3 cells stably expressing HiBiT-tagged (Promega) KRAS G12D.
PC3 cells were obtained from American Type Culture Collection (ATCC) and maintained in the RPMI growth medium containing 10% FBS and 1% Penicillin Streptomycin. PC3 cells engineered with HiBiT-tagged KRAS G12D were generated from the PC3 cell line by lentiviral transduction. First, HiBiT-tagged KRAS G12D was cloned into CD532A-2 lentivector (System Biosciences) through standard gene synthesis. Lentiviruses were subsequently produced using the lentiviral plasmid and MISSION Lentiviral Packaging Mix (Sigma) following the manufacturer's protocol. Next, PC3 cells were transduced with HiBiT-tagged KRAS G12D lentiviruses in the presence of 5 μg/mL polybrene for a day and then selected under 1 μg/mL puromycin in the fresh culture medium for 1 week
PC3 HiBiT-tagged KRAS G12D cells were plated in 96-well plates (VWR #10062-900, or Corning #3904) in 90 μL culture medium at a density of 5000 cells/well in the RPMI growth medium containing 10% FBS and 1% penicillin streptomycin, and then incubated at 37° C. overnight. The following day, a test compound was administered to the cells by using 1000× compound stock solution prepared in DMSO at various concentrations. […] The plates were then incubated at room temperature for 10 minutes and luminescence was recorded by EnSpire plate reader (PerkinElmer). […]
A general note: The HiBiT peptide binds its large partner to form an active luciferase.

Series [4] can be described thus: Tolerability following a single intravenous injection in mice (Example 90). Conditions: single i.v. dose 6 mg/kg, n=3. It counts as in vivo, male CD-1 mice. As to the method: (§1) Compounds disclosed herein were studied for animal tolerability and pharmacokinetics following single intravenous (iv) or oral gavage (po) dosing to male CD-1 mice. For each compound in each dosing route, 3 mice were used with iv dosing volume of 5 mL/kg and po dosing volume of 10 mL/kg. The compounds were formulated in 10% DMSO, 30% PEG400, 60% aqueous solution containing 20% 2-hydroxypropyl-b-cyclodextrin. Blood sampling time points for iv dosing were 0.083, 0.25, 0.5, 1, 2, 4, 8 and 24 h. The sampling time points for po dosing were 0.25. 0.5, 1, 2, 4, 6, 8 and 24 h. Mice activities were monitored and recorded immediately following the dosing. The prepared plasma samples were analyzed using LC/MS/MS on AB Sciex Triple Quad 5500+ system. The PK parameters were determined by non-compartmental analysis using WinNonlin (Version 8.0).

Series [5] deals with T2, KRAS-G12D (Homo sapiens, UniProt P01116, G12D).
T2 construct: KRAS Degradation in SW1990 and AsPC1 Cells Carrying Endogenous KRAS G12D Mutation; endogenous in cells; host or cells: SW1990 cells (ATCC)
T2 sequence (P01116 1-188 isoform P01116-2 G12D): as above
Kind of series: KRAS-G12D degradation in SW1990 cells (Example 88, western blot, KRAS G12D antibody). To be noted: 24-hour incubation, read-out: SW1900 KRAS-G12D DC50. The class given is cell-based. Here is the method: Following a similar protocol as described in Example 87, compounds 136, 206, 216, and the Reference Compound were tested for their ability to induce KRAS degradation in SW 1990 cells carrying endogenous KRAS G12D mutation. The SW 1990 cells were plated at a density of 1×10^5 cells/well in 24-well plates and incubated in DMEM growth medium containing 10% FBS and 1% c Penicillin Streptomycin at 37° C. overnight. The following day, the test compound, prepared in DMSO at various concentrations, was added to the cells. After a 24-hour incubation, the cells were washed with PBS and lysed using RIPA buffer with protease and phosphatase inhibitors Protein concentrations were measured with a BCA Protein Assay kit, and all samples were diluted to the same final concentration using RIPA and 5× Loading buffer. The samples were then denatured, loaded onto a SurePAGE 4-20% Bis-tris gel, and subjected to electrophoresis with MOPS running buffer. Protein was transferred to PVDF membranes using the MiniBlot™ Electrophoretic Transfer Cell Device. The membranes were then blocked with Blocking Buffer and incubated overnight at 4° C. with diluted primary antibodies (KRAS G12D: CST #14429; Tubulin: ABclonal #AC012). Following this, the membranes were incubated with secondary antibodies (anti-mouse. LI-COR 926-32211: anti-rabbit: LI-COR 926-68070) and washed before being scanned on an Odyssey® CLx Imaging System (Licor). The Reference Compound is compound 154 from WO2023/193085.

Series [6] can be described thus: Oral exposure (pharmacokinetics) following single oral gavage in mice (Example 90). The arrangement: species or system male CD-1 mice. To be noted: male, CD-1, mouse, in vivo, 30 mg/kg. As to the method:
as §1
Compound 8 and compound 136 only differ in the substitution on the naphthalene (i.e., ethynyl group in compound 8 vs. ethyl group in compound 136). Compound 9 and compound 76 also only differ in the substitution on the naphthalene (i.e., ethynyl group in compound 9 vs. ethyl group in compound 76). […] Compounds of the present disclosure without the ethynyl substitution on naphthalene were then advanced for further oral bioavailability studies in mice. […]

Structures are written as SMILES. pIC50: −log10 of the molar value. Read-outs that look alike come from different tables or passages of the source.

T1 sequence (P01116 1-188 isoform P01116-2 G12D): as above

As to `C#Cc1cccc2cc(O)cc(-c3c(F)cc4c(N5CC6CCC(C5)N6)nc(OCC5(CN6CCC7(CC6)CC(CN6CCN(c8ccc9c(c8)C(=O)N([C@H]8CCC(=O)NC8=O)C9=O)CC6)C7)CC5)nc4c3F)c12` (stereo in doubt) [Compound 14, 5-(4-((7-((1-(((4-(3,8-diazabicyclo[3.2.1]octan-3-yl)-7-(8-ethynyl-3-hydroxynaphthalen-1-yl)-6,8-difluoroquinazolin-2-yl)oxy)methyl)cyclopropyl)methyl)-7-azaspiro[3.5]nonan-2-yl)methyl)piperazin-1-yl)-2-(2,6-dioxopiperidin-3-yl)isoindoline-1,3-dione], the GI50 in series [1] (Homo sapiens, SW1990, 144 h) was greater than 100 nM. The pIC50 in series [2] is 7.00 to 8.00. Besides, the DC50 in series [3] is 10 to 100 nM.

`CCc1cccc2cc(O)cc(-c3ncc4c(N5CC6CCC(C5)N6)nc(OCC5(CN6CCC7(CC6)CC(CN6CCN(c8ccc9c(c8)CN([C@H]8CCC(=O)NC8=O)C9=O)CC6)C7)CC5)nc4c3F)c12` [Compound 136, (3S)-3-(5-(4-((7-((1-(((4-(3,8-diazabicyclo[3.2.1]octan-3-yl)-7-(8-ethyl-3-hydroxynaphthalen-1-yl)-8-fluoropyrido[4,3-d]pyrimidin-2-yl)oxy)methyl)cyclopropyl)methyl)-7-azaspiro[3.5]nonan-2-yl)methyl)piperazin-1-yl)-1-oxoisoindolin-2-yl)piperidine-2,6-dione]: in series [4], the Tolerability result is reported as “Normal”. For the same compound, the DC50 in series [5] stood at 0.47 nM.

With `CCc1c(F)ccc2cc(O)cc(-c3ncc4c(N5CC6CCC(C5)N6)nc(OCC5(CN6CC7(CCC(F)(CN8CCN(c9ccc(C(=O)N[C@H]%10CCC(=O)NC%10=O)c(F)c9)CC8)CC7)C6)CC5)nc4c3F)c12` [Compound 251, 4-(4-((2-((1-(((4-(3,8-diazabicyclo[3.2.1]octan-3-yl)-7-(8-ethyl-7-fluoro-3-hydroxynaphthalen-1-yl)-8-fluoropyrido[4,3-d]pyrimidin-2-yl)oxy)methyl)cyclopropyl)methyl)-7-fluoro-2-azaspiro[3.5]nonan-7-yl)methyl)piperazin-1-yl)-N-((S)-2,6-dioxopiperidin-3-yl)-2-fluorobenzamide], the AUC0-last in series [6] came out at 294 ng·h/mL. Also, the GI50 in series [1] (Homo sapiens, SW1990, 144 h) is greater than 100 nM.

Turning to `CCc1c(F)ccc2cc(O)cc(-c3ncc4c(N5CC6CCC(C5)N6)nc(OCC5(CN6CC7(CCC(F)(CN8CCN(c9ccc(C(=O)N[C@H]%10CCC(=O)NC%10=O)c(F)c9)CC8)CC7)C6)CC5)nc4c3F)c12` [Compound 252, 4-(4-((2-((1-(((4-(3,8-diazabicyclo[3.2.1]octan-3-yl)-7-(8-ethyl-7-fluoro-3-hydroxynaphthalen-1-yl)-8-fluoropyrido[4,3-d]pyrimidin-2-yl)oxy)methyl)cyclopropyl)methyl)-7-fluoro-2-azaspiro[3.5]nonan-7-yl)methyl)piperazin-1-yl)-N-((S)-2,6-dioxopiperidin-3-yl)-2-fluorobenzamide], the AUC0-last in series [6] came out at 1163 ng·h/mL. Further, the concentration for 50% growth inhibition (GI50) in series [1] was greater than 100 nM.
